Activity calls are given as the source filed them. The calls are words filed in the database; no cut-off is given here. A value given as a limit tells only on which side of the number the result lay.

From ChEMBL document CHEMBL1914417 (Bioorg Med Chem Lett, 2011) come the findings set out here.

Data set [1] concerns Plasma. Kind of data set: Fraction unbound in rat plasma. Type of data set: ADME, cell-free.
Data set [2] can be described thus: AUC in rat at 10 mg/kg, po. Further details: dose 10 mg/kg, route oral. The following applies: plasma. Type of data set: ADME, organism-based.
Data set [3] deals with T1, Muscarinic acetylcholine receptor M5 (Rattus norvegicus, UniProt P08911).
T1 sequence (P08911 whole entry): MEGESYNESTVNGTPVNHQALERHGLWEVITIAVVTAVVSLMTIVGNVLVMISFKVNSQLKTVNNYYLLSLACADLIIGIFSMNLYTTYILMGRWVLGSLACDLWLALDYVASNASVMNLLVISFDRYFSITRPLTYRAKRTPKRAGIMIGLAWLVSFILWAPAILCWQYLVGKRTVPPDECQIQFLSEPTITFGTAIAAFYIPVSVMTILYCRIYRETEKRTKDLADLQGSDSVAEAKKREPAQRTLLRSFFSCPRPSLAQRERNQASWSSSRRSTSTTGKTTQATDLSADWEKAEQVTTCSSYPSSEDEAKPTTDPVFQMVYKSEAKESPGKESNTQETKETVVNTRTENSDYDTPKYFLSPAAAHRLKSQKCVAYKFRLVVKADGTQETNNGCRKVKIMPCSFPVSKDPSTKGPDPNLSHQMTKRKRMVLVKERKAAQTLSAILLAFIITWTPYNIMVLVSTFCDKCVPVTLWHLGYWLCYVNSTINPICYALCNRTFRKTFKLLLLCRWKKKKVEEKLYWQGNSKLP
The data set is described as follows: Agonist activity at rat muscarinic M5 receptor expressed in CHO cells. Type of data set: functional, cell-based.

Data set [4] can be described thus: Drug uptake in Sprague-Dawley rat brain at 10 mg/kg, po after 90 mins. It counts as ADME, organism-based. On the set-up: dose 10 mg/kg, route oral. Conditions: read-out: Drug uptake.
For the next data set, the target named is hERG (KCNH2) (Homo sapiens, UniProt Q12809). The data set is described as follows: Inhibition of human ERG at 10 uM.
The target in the next data set is Cytochrome P450 2D6 (Homo sapiens, UniProt P10635). Kind of data set: Inhibition of CYP2D6. Type of data set: ADME.
Data set [5] in a line: AUC in rat at 1 mg/kg, iv. It counts as ADME, organism-based. Further details: dose 1 mg/kg, route intravenous. The following applies: plasma.
The target of a further data set is T2, Cytochrome P450 1A2 (Homo sapiens, UniProt P05177).
T2 sequence (P05177 whole entry): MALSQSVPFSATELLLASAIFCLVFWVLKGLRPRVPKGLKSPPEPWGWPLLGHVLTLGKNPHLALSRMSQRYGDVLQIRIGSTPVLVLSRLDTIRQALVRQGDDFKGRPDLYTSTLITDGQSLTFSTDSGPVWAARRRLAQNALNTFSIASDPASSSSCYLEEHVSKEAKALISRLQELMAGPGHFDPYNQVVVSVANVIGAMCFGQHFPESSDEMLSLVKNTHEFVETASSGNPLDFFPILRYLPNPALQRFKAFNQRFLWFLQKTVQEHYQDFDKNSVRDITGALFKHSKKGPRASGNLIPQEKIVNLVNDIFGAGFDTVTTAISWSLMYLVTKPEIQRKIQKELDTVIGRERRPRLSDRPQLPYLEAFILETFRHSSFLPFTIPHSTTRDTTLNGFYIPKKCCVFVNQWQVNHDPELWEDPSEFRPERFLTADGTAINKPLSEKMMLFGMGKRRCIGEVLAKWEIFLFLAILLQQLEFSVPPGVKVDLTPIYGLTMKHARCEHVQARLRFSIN
Kind of data set: Inhibition of CYP1A2. It counts as ADME.

A further data set deals with Cytochrome P450 2C9 (Homo sapiens, UniProt P11712). The data set is described as follows: Inhibition of CYP2C9. It counts as ADME.
A short description of data set [6]: Clearance in rat at 1 mg/kg, iv and 10 mg/kg, po. Type of data set: ADME, organism-based. The following applies: in vivo.
Data set [7] in a line: Half life in rat 1 mg/kg, iv and 10 mg/kg, po. It counts as ADME, organism-based. The following applies: in vivo.
Data set [8] deals with Muscarinic acetylcholine receptor M3 (Rattus norvegicus, UniProt P08483). Kind of data set: Agonist activity at rat recombinant muscarinic M3 receptor by HTS cell based assay. It counts as functional.
Data set [9] is described as follows: Ratio of AUC in brain to AUC in blood in Sprague-Dawley rat at 10 mg/kg, po after 90 mins. Type of data set: ADME, organism-based. The following applies: read-out: BPR. On the set-up: dose 10 mg/kg, route oral.
Data set [10] deals with Plasma. Kind of data set: Fraction unbound in human plasma. It counts as ADME, cell-free.
Data set [11] is described as follows: Volume of distribution at steady state in rat 1 mg/kg, iv and 10 mg/kg, po. It counts as ADME, organism-based. Conditions: in vivo, read-out: Vdss.
Data set [12] is described as follows: Plasma concentration in Sprague-Dawley rat at 10 mg/kg, po after 90 mins. Type of data set: ADME, organism-based. Further details: dose 10 mg/kg, route oral.
In data set [13] the target is T3, Muscarinic acetylcholine receptor M1 (Rattus norvegicus) (UniProt P08482).
T3 sequence (whole entry): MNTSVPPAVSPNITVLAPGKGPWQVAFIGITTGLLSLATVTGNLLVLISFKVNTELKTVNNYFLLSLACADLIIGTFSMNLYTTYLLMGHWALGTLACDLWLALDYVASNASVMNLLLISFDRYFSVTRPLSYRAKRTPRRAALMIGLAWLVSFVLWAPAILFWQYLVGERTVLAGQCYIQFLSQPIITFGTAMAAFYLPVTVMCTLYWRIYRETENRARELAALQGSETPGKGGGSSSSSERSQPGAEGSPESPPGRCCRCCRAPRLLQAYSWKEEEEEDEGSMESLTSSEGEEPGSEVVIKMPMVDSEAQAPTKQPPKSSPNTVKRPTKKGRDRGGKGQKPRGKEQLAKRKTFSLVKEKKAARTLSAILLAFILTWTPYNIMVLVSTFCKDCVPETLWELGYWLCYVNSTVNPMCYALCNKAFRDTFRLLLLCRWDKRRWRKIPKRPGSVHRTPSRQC
Kind of data set: Agonist activity at rat muscarinic M1 receptor expressed in CHO cells at 10 uM. Type of data set: functional, cell-based.

Data set [14] is described as follows: Potentiation of NMDA receptor-induced current in hippocampal CA1 pyramidal cells at 30 uM. Type of data set: tissue-based. Conditions: Hippocampus.
A further data set has as its system Rattus norvegicus. The data set is described as follows: Oral bioavailability in rat 10 mg/kg. It counts as ADME, organism-based. The following applies: in vivo.

Muscarinic acetylcholine receptor M3, sequence (P08483 whole entry): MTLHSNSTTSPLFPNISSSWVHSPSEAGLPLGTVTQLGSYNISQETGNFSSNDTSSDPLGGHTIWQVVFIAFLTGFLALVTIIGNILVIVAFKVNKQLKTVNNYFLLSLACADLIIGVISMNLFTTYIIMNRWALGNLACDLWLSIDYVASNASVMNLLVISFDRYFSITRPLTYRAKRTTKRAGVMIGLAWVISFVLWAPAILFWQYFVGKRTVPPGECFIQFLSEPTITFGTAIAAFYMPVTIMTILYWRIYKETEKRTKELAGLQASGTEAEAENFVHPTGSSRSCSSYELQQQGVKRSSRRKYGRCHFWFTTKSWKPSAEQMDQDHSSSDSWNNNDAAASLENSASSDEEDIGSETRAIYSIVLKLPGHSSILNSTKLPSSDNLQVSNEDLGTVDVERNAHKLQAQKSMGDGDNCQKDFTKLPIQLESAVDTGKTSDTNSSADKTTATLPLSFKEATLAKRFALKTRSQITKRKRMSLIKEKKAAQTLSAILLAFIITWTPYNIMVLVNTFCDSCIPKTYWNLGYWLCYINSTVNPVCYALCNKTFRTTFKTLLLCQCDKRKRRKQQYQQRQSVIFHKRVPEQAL
Cytochrome P450 2D6, sequence (P10635 whole entry): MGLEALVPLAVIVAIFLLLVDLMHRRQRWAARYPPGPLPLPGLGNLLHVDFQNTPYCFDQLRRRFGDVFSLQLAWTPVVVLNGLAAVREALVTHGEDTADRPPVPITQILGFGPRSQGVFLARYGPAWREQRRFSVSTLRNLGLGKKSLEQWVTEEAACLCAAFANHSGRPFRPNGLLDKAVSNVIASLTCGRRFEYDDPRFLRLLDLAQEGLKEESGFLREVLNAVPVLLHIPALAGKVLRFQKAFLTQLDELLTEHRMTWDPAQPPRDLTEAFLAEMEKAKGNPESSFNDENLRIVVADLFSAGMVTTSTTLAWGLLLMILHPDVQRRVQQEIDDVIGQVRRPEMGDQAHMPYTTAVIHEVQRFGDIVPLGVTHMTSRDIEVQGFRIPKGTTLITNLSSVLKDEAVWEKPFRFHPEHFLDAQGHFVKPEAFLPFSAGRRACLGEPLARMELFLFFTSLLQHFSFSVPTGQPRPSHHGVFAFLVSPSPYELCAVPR
Cytochrome P450 2C9, sequence (P11712 whole entry): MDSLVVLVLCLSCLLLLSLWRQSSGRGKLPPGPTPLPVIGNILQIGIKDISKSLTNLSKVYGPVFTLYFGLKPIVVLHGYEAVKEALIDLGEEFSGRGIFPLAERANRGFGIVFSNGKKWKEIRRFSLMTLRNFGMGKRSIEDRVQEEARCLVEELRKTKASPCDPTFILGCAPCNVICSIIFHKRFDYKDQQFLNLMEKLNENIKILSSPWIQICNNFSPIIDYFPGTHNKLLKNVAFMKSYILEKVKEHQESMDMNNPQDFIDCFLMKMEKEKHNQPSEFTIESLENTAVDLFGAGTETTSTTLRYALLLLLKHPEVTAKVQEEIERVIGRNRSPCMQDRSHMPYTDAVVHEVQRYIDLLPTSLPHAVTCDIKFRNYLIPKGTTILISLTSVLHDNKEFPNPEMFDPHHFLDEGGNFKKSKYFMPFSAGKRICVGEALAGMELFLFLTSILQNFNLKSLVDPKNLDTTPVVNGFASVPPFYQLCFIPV
hERG (KCNH2), sequence (Q12809 whole entry): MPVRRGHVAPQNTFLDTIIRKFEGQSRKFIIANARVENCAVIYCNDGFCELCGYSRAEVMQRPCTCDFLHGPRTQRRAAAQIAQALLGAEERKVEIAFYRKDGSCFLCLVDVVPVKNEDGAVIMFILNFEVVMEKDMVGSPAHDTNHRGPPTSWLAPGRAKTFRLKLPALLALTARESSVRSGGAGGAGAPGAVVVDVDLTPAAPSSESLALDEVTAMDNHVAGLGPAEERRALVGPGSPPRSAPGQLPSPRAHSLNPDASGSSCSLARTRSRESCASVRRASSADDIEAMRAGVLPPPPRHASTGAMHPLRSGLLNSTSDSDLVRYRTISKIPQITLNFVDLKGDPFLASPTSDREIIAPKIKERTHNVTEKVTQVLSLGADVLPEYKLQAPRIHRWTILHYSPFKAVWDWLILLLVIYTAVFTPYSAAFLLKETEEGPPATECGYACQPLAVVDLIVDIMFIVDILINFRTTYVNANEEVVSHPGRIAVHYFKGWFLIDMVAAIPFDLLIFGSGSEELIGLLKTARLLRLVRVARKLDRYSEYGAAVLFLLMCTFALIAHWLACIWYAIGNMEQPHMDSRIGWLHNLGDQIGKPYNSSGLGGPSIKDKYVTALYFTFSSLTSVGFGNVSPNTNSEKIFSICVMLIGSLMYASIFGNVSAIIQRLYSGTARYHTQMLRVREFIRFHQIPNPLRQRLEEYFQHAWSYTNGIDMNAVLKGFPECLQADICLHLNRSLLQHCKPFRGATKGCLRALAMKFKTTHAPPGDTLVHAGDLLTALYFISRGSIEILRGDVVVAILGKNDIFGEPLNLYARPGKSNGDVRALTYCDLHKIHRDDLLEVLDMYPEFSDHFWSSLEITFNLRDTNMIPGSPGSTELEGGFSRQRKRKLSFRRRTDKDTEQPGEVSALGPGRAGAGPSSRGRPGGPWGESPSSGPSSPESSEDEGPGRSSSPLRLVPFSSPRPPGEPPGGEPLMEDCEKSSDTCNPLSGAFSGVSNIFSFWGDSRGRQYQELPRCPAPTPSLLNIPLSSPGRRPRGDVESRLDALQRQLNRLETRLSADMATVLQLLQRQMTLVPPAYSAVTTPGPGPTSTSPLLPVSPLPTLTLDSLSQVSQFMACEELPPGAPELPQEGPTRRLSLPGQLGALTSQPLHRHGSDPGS

Regarding `CCOC(=O)N1CCC(N2CCC[C@@H](NC(=O)c3ccccc3C)C2)CC1`, the results for the Fu in the data set with Plasma [1] and with Plasma [10] were 14.9% and 5.8%, respectively. Moreover, the values for the AUC in data set [2] and in data set [5] were 4200 ng·h/mL and 1100 ng·h/mL, respectively. For the same compound, the EC50 in data set [3] and in data set [8] was > 30 µM in each case. The concentration at 1.5 h came out at 1890 nM in [4] and 1450 nM in [12]. On hERG (KCNH2), at 10 µM the inhibition was 22%. Also, the IC50 against Cytochrome P450 2D6, against Cytochrome P450 1A2 and against Cytochrome P450 2C9 was > 25 µM in each case. In [6], this compound showed a clearance of 14.7 mL/min/kg. Besides, the half-life in [7] came to 46 min. Besides, in data set [9], the Kp at 1.5 h came out at 1.35. For the same compound, the Vd in data set [11] was 0.98 L/kg. The activation entry in data set [13] was “Active”. Further, the outcome in data set [14] was Active. In addition, the F with Rattus norvegicus is on record as 37%.
For the compound `CCOC(=O)N1CCC(NCCNC(=O)c2ccccc2C)CC1`, the EC50 in [3] and in [8] was > 30 µM in each case.
